Laboratory results as given in patent US7335814B2, “Transgenic cells expressing glucosyltransferase nucleic acids” (The University of York, priority 2000, dated 2008).

Tests used:
Format in all cases: biochemical
recombinant GTase A911 = molecular target: T1, recombinant GTase A911 (Arabidopsis thaliana, UniProt O22182); experiment: Specific activity of recombinant GTase producing glucose ester against lignin precursors (HPLC); design: made in house; host or cells: E. coli; details: 0.5 ml of potential substrates, 5 mM UDPG, 0.2 μg GTase, 200 μl, 20° C., 30 min
T1 sequence (O22182 1-456): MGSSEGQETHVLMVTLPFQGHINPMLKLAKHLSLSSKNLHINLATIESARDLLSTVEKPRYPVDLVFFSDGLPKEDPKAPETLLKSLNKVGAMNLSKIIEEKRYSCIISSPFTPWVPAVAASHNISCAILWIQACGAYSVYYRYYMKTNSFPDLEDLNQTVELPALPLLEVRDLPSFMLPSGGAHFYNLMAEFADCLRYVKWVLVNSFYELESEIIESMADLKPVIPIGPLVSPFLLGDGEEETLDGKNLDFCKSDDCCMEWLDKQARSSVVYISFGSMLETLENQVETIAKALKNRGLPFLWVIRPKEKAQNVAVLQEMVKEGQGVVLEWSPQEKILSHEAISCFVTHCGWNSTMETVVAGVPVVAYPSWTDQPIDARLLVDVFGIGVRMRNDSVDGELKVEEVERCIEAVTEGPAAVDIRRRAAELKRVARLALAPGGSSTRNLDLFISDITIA

UGT71C1 = molecular target: T2, UGT71C1 (Arabidopsis thaliana, UniProt O82381); experiment: UGT71C1 glucosyltransferase specific activity towards phenolic compounds (reverse-phase HPLC); details: 1 mM phenolic compound, 5 mM UDP-glucose, 50 mM TRIS-HCl pH 7.0, 30° C., 30 min; mean of three replicates ± standard deviation
T2 construct: GST (N); made in house; host or cells: E. coli
T2 sequence (O82381 1-481): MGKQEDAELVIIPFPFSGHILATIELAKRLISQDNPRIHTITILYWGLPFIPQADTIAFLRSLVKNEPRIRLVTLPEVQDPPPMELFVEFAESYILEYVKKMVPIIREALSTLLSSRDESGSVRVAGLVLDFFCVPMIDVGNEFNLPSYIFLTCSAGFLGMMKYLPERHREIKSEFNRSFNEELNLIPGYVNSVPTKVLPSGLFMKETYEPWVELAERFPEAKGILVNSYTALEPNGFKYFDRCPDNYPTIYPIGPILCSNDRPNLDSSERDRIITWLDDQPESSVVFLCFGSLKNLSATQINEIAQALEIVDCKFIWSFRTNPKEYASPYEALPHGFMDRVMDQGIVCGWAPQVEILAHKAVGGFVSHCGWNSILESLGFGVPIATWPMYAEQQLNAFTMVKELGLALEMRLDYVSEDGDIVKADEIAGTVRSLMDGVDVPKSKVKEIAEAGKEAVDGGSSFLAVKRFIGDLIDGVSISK

recombinant GTase A42 = molecular target: T3, recombinant GTase A42 (Arabidopsis thaliana, UniProt O23401); experiment: Specific activity of recombinant GTase producing glucose ester against lignin precursors (HPLC); details: 0.5 ml of potential substrates, 5 mM UDPG, 0.2 μg GTase, 200 μl, 20° C., 30 min
T3 construct: made in house; host or cells: E. coli
T3 sequence (O23401 1-479): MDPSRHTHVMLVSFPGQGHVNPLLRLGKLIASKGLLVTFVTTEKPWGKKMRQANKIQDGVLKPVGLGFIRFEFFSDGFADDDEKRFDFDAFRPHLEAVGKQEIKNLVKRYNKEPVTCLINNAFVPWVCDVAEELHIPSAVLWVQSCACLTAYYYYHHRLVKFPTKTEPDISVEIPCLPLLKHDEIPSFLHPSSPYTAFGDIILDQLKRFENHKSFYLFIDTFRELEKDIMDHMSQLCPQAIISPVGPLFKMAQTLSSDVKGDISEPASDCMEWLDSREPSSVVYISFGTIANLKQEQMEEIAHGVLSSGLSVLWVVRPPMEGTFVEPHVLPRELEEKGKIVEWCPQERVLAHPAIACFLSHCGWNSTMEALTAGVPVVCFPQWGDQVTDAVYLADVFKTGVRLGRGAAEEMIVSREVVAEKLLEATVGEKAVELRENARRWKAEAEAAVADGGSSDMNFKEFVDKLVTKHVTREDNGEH

recombinant GTase A41 = molecular target: T4, recombinant GTase A41 (Arabidopsis thaliana, UniProt Q5XF20); experiment: as above; details: 5 mM UDPG, 0.2 μg GTase, 200 μl, 20° C., 30 min
T4 construct: made in house; host or cells: E. coli
T4 sequence (Q5XF20 7-490): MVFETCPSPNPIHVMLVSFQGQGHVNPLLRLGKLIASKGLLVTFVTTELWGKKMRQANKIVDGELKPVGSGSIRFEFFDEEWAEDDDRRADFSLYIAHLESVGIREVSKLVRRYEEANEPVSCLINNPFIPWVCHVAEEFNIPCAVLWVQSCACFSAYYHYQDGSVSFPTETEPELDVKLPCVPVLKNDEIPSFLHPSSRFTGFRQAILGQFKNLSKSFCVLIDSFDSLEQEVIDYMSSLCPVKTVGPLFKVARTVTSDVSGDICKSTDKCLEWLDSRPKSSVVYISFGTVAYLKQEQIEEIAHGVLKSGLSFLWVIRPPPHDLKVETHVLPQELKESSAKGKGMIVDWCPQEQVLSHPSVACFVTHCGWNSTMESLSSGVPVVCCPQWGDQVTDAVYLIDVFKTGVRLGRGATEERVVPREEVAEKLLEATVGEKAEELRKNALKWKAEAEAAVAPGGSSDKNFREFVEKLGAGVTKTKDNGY

recombinant GTase A43 = molecular target: T5, recombinant GTase A43 (Arabidopsis thaliana, UniProt O23402); experiment: as above; details: 0.5 ml of potential substrates, 5 mM UDPG, 0.2 μg GTase, 200 μl, 20° C., 30 min
T5 construct: made in house; host or cells: E. coli

recombinant GTase A119 = molecular target: T6, recombinant GTase A119 (Arabidopsis thaliana, UniProt Q9LVR1); experiment: Specific activity of recombinant GTase producing O-glucosides against lignin precursors (HPLC); details: 30° C.; ND = not detected
T6 construct: made in house; host or cells: E. coli
T6 sequence (Q9LVR1 1-481): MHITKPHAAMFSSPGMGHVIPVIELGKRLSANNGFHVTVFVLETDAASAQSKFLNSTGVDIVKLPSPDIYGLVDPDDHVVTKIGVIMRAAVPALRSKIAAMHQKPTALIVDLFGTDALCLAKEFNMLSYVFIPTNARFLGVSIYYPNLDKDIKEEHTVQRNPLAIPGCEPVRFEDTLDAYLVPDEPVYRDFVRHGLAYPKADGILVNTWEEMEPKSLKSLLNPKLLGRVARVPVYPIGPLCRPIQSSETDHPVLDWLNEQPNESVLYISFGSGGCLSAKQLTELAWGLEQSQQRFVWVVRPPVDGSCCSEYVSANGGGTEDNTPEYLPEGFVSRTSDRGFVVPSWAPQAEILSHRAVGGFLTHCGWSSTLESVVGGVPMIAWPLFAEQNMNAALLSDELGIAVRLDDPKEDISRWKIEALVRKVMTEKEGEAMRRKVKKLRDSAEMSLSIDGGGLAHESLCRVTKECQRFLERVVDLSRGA

SMILES	Specific activity of A911 (substrate converted to glucose ester) (recombinant GTase A911) [nkat/mg]	Specific activity (UGT71C1) (UGT71C1) [nkat/mg]	Specific activity of A42 (substrate converted to glucose ester) (recombinant GTase A42) [nkat/mg]	Specific activity of A41 (substrate converted to glucose ester) (recombinant GTase A41) [nkat/mg]	Specific activity of A43 (substrate converted to glucose ester) (recombinant GTase A43) [nkat/mg]	Specific activity of A119 (substrate converted to 4-O-glucoside) (recombinant GTase A119) [nkat/mg]
COc1cc(/C=C/C(=O)O)ccc1O [Ferulic acid, ferulic acid]	2.88	0	15.63	6.64	0.04	14.48
O=C(O)/C=C/c1ccc(O)cc1 [p-coumaric acid]	4.31	0	4.69	13.53	0.03	0.02
